Assay results taken from patent US10221125B2, “Solid forms” (Oryzon Genomics, S.A., priority 2015, dated 2019).
Counter-ions that a name gives are not always drawn. One block for each compound: values may come before it.

Columns and labels:
Format in all cases: physicochemical
[1] = Stability of the di-hydrochloric acid salt (decomposition, release of HCl)
[2] = Thermal behaviour on heating/cooling (temperature controlled XRPD)
Method: For temperature controlled XRPD measurements, the sample was placed without further processing (e.g. grinding or sieving) in a quartz glass capillary of 1 mm diameter and sealed. Measurements were performed with a STOE high-/low-temperature extension (temperature range −50° C. to 300° C.) with am NiCr/Ni-thermal element at a ramp rate of 5° C. per minute, temperature steps every 5° C., 30 minutes measuring time per step, […]

[3] = Hygroscopicity (mass increase when relative humidity is raised from 0% rH to 90% rH); details: increase in mass
Source text: The term “hygroscopicity” describes the ability of a solid material to adsorb moisture. The hygroscopicity of a given API is characterized [European Pharmacopoeia—6th Edition (2008), Chapter 5.11) by the increase in mass when the relative humidity is raised from 0% rH to 90% rH: • non-hygroscopic: weight increase Δm<0.2%; • slightly hygroscopic: weight increase 0.2%≤Δm<2.0%; • hygroscopic: weight increase 2.0%≤Δm<15.0%; • very hygroscopic: weight increase Δm≥15.0%; • a deliquescent: sufficient water is adsorbed to form a liquid.

[4] = Long-term incubation/storage at elevated temperature or elevated humidity (phase change)
[5] = Long term equilibration slurry experiments (polymorph stability)

SMILES: N[C@H]1CC[C@H](N[C@@H]2C[C@H]2c2ccccc2)CC1 [(trans)-N1-((1R,2S)-2-phenylcyclopropyl)cyclohexane-1,4-diamine di-hydrochloride]
stability of di-hydrochloric acid salt (decomposition to mono-hydrochloride, release of corrosive hydrochloric acid) [1]: does not decompose and release corrosive hydrochloric acid

polymorph stability description [2]: unstable high-temperature polymorph
SMILES: N[C@H]1CC[C@H](N[C@@H]2C[C@H]2c2ccccc2)CC1 [Form C, (trans)-N1-((1R,2S)-2-phenylcyclopropyl)cyclohexane-1,4-diamine di-hydrochloride]

phase change to Form B on long term storage ([4]; increased humidity, e.g. 100% rH): does not induce a phase change to Form B
SMILES: N[C@H]1CC[C@H](N[C@@H]2C[C@H]2c2ccccc2)CC1 [Form A, (trans)-N1-((1R,2S)-2-phenylcyclopropyl)cyclohexane-1,4-diamine di-hydrochloride]
hygroscopicity [3]: slightly hygroscopic (slightly hygroscopic: weight increase 0.2%≤Δm<2.0%)

polymorph stability ranking [5]: most stable polymorph
decomposition temperature ([2]; on heating, di-hydrochloride): above 210 °C
stability as compared to Form A [4]: substantially increased
phase change during long-term incubation ([4]; elevated temperature or elevated humidity, even at 100% rH): no phase-change is observed
SMILES: N[C@H]1CC[C@H](N[C@@H]2C[C@H]2c2ccccc2)CC1 [Form B, (trans)-N1-((1R,2S)-2-phenylcyclopropyl)cyclohexane-1,4-diamine di-hydrochloride]
hygroscopicity [3]: slightly hygroscopic (slightly hygroscopic: weight increase 0.2%≤Δm<2.0%)
formation of Form C upon heating ([2]; heating of Form B): cannot be prepared upon heating of Form B
